Consider 17 compounds from patent US20070032533A1, “Nitric oxide enhancing angiotensin II antagonist compounds, compositions and methods of use” (NitroMed, Inc., priority 2005, published 2007).

Data set [1] has as its target T1, Human angiotensin II type 1 receptor (Homo sapiens, UniProt P30556).
T1 construct: Cerep, Seattle, Wash; (contract laboratory that ran the assay)
T1 sequence (P30556 1-359): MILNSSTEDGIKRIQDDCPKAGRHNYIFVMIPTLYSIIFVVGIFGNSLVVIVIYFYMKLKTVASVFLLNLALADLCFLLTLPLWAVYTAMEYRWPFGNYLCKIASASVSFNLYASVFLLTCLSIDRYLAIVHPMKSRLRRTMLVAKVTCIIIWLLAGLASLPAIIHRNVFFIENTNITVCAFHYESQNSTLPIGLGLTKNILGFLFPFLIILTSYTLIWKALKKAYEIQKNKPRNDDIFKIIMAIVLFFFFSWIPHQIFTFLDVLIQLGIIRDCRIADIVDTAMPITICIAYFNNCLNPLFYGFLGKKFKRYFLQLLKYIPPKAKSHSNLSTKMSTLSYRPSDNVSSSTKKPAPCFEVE
The data set is described as follows: Human angiotensin II type 1 receptor binding assay. Conditions: for inhibition at 0.1 µM / AT1 Binding Human % Inhibition at 100 nM: percent inhibition of control specific binding at 100 nM test compound; for inhibition at 0.1 µM: read-out: AT1 Binding Human % Inhibition at 100 nM. The method, then: Human Angiotensin II Type 1 Receptor Binding Assay
The Human angiotensin II type 1 receptor binding assay was performed by Cerep, Seattle, Wash., using the procedure described in Bergsma et al; Biochem. Biophys. Res. Commun., 183: 989-995 (1992).

Structures can show the parent of a compound that is named as a salt.

By inhibition is commonly meant the relative decrease from the control value, in per cent. One may read the melting point as the temperature, or range, at which the solid turns liquid. As for `CCc1nc2c(C)cc(C)nc2n1Cc1ccc(-c2ccccc2S(=O)(=O)NC(=O)c2cccc(CO[N+](=O)[O-])c2)cc1` [Example 13, Benzamide, N-[[4′-[(2-ethyl-5,7-dimethyl-3H-imidazo[4,5-b]pyridin-3-yl)methyl][1,1′-biphenyl]-2-yl]sulfonyl]-3-[(nitrooxy)methyl]], the melting point was 123 °C (dec.). The inhibition at 0.1 µM in data set [1] stood at 73%.

As for `CCOc1nc2cccc(CO[N+](=O)[O-])c2n1Cc1ccc(-c2ccccc2-c2nnn[nH]2)cc1` (as salt: nitrate) [Example 14e, 1H-benzimidazole-7-methanol, 2-ethoxy-1-[[2′-(1H-tetrazol-5-yl)[1,1′-biphenyl]-4-yl]methyl]-, nitrate (ester)], the melting point was 126 °C (dec.).

As for `CC(C)[C@@H](C(=O)O)N(Cc1ccc(-c2ccccc2-c2nnn[nH]2)cc1)C(=O)CCC(CO[N+](=O)[O-])O[N+](=O)[O-]` (stereo partly drawn) [Example 4b, L-valine, N-[4,5-bis(nitrooxy)-1-oxopentyl]-N-[[2′-(1H-tetrazol-5-yl)[1,1′-biphenyl]-4-yl]methyl]], the melting point is 182 °C (dec.). Further, the inhibition at 0.1 µM in data set [1] stood at 2%.

For the compound `CC(C)[C@@H](C(=O)O)N(Cc1ccc(-c2ccccc2-c2nnn[nH]2)cc1)C(=O)CCCC(CO[N+](=O)[O-])O[N+](=O)[O-]` (stereo partly drawn) [Example 5b, L-valine, N-[5,6-bis(nitrooxy)-1-oxohexyl]-N-[[2′-(1H-tetrazol-5-yl)[1,1′-biphenyl]-4-yl]methyl]], the melting point is 192 °C (dec.). Besides, the inhibition at 0.1 µM in data set [1] was -1%.

As for `CCCCC(=O)N(Cc1ccc(-c2ccccc2-c2nnn[nH]2)cc1)[C@H](C(=O)N(C)CCO[N+](=O)[O-])C(C)C` [Example 9], the melting point fell in the range of 86 to 89 °C. Further, the inhibition at 0.1 µM in data set [1] came out at 8%.

Turning to `CC(C)[C@@H](C(=O)O)N(Cc1ccc(-c2ccccc2-c2nnn[nH]2)cc1)C(=O)CCCCCO[N+](=O)[O-]` [Example 2g, L-valine, N-[6-(nitrooxy)-1-oxohexyl]-N-[[2′-(1H-tetrazol-5-yl)[1,1′-biphenyl]-4-yl]methyl]], the melting point is 196 °C (dec.).

Turning to `CCCCC(=O)N(CCCO[N+](=O)[O-])Cc1ccc(-c2ccccc2-c2nnn[nH]2)cc1` [Example 7d, Pentanamide, N-[3-(nitrooxy)propyl]-N-[[2′-(1H-tetrazol-5-yl)[1,1′-biphenyl]-4-yl]methyl]], the melting point fell in the range of 54 to 59 °C. In data set [1], the inhibition at 0.1 µM was found to be 21%.

`CCc1nc2c(C)cc(C)nc2n1Cc1ccc(-c2ccccc2S(=O)(=O)NC(=O)C2CC(C)(C)N([O])C(C)(C)C2)cc1` [Example 11, 1-Piperidinyloxy, 4-[[[[4′-[(2-ethyl-5,7-dimethyl-3H-imidazo[4,5-b]pyridin-3-yl)methyl][1,1′-biphenyl]-2-yl]sulfonyl]amino]carbonyl]-2,2,6,6-tetramethyl]: the “AT1 Binding Human % Inhibition at 100 nM” value in data set [1] turned out to be 88%.

In the case of `CCc1nc2c(C)cc(C)nc2n1Cc1ccc(-c2ccccc2S(=O)(=O)NC(=O)C2=CC(C)(C)N([O])C2(C)C)cc1` [Example 12, 1H-Pyrrol-1-yloxy, 3-[[[[4′-[(2-ethyl-5,7-dimethyl-3H-imidazo[4,5-b]pyridin-3-yl)methyl][1,1′-biphenyl]-2-yl]sulfonyl]amino]carbonyl]-2,5-dihydro-2,2,5,5-tetramethyl], the “AT1 Binding Human % Inhibition at 100 nM” value in data set [1] is on record as 78%.

`CCCCC(=O)N(Cc1ccc(-c2ccccc2-c2nnn[nH]2)cc1)[C@H](C(=O)N(CCO[N+](=O)[O-])CCO[N+](=O)[O-])C(C)C` [Example 8]: the melting point was 87 to 90 °C. In data set [1], the inhibition at 0.1 µM worked out at 4%.

As to `CC(C)[C@@H](C(=O)O)N(Cc1ccc(-c2ccccc2-c2nnn[nH]2)cc1)C(=O)c1cccc(CO[N+](=O)[O-])c1` [Example 3b, L-valine, N-[3-[(nitrooxy)methyl]benzoyl]-N-[[2′-(1H-tetrazol-5-yl)[1,1′-biphenyl]-4-yl]methyl]], the melting point is 151 °C (dec.). For the same compound, the inhibition at 0.1 µM in data set [1] worked out at 5%.

Consider `CC(C)[C@@H](C(=O)N(C)C)N(Cc1ccc(-c2ccccc2-c2nnn[nH]2)cc1)C(=O)CCCCO[N+](=O)[O-]` [Example 6, Pentanamide, N-[(1S)-1-[(dimethylamino)carbonyl]-2-methylpropyl]-5 (nitrooxy)-N-[[2′-(1H-tetrazol-5-yl)[1,1′-biphenyl]-4-yl]methyl]], for which the melting point lay in the range of 75 to 78 °C. Besides, the inhibition at 0.1 µM in data set [1] turned out to be 83%.

Regarding `CCc1nc2c(C)cc(C)nc2n1Cc1ccc(-c2ccccc2S(=O)(=O)NC(=O)c2ccccc2)cc1` [MK 996, reference compound], the “AT1 Binding Human % Inhibition at 100 nM” value in data set [1] was 91%.

As to `CCCCC(=O)N(Cc1ccc(-c2ccccc2-c2nnn[nH]2)cc1)[C@H](C(=O)N1CCC(CO[N+](=O)[O-])CC1)C(C)C` [Example 10, Pentanamide, N-[(1S)-2-methyl-1-[[4-[(nitrooxy)methyl]-1-piperidinyl]carbonyl]propyl]-N-[[2′-(1H-tetrazol-5-yl) [1,1′-biphenyl]-4-yl]methyl]], the melting point is 86 to 88 °C. Besides, in data set [1], the inhibition at 0.1 µM was found to be 22%.

In the case of `CC(C)[C@@H](C(=O)OC(C)(C)C)N(Cc1ccc(-c2ccccc2-c2nnn(C(c3ccccc3)(c3ccccc3)c3ccccc3)n2)cc1)C(=O)CCCCCO[N+](=O)[O-]` [Example 2f, L-valine, N-[6-(nitrooxy)-1-oxohexyl]-N-[[2′-[2-(triphenylmethyl)-2H-tetrazol-5-yl][1,1′-biphenyl]-4-yl]methyl]-, 1,1-dimethylethyl ester], in data set [1], the inhibition at 0.1 µM was found to be 12%.

As to `CCCCC(=O)N(Cc1ccc(-c2ccccc2-c2nnn[nH]2)cc1)[C@H](C(=O)O)C(C)C` [Valsartan, reference compound], the inhibition at 0.1 µM in data set [1] came out at 94%.

As usually defined, the IC50 is the concentration that inhibits the measured activity by half. Low readings indicate inhibition by little substance, high ones a need for much substance. `CC(C)[C@@H](C(=O)O)N(Cc1ccc(-c2ccccc2-c2nnn[nH]2)cc1)C(=O)CCCCO[N+](=O)[O-]` [Example 1g, L-valine, N-[5-(nitrooxy)-1-oxopentyl]-N-[[2′-(1H-tetrazol-5-yl)[1,1′-biphenyl]-4-yl]methyl]] yielded a melting point of 108 to 111 °C. Besides, the half-maximal inhibitory concentration (IC50) in data set [1] (human AT1 receptor binding, performed by Cerep) is 18 nM. In addition, the inhibition at 0.1 µM in data set [1] is 86%.
